{
  "source": "patent US20160368943A1",
  "about": "“SUBSTITUTED PURINE COMPOUNDS” (EPIZYME, INC., priority 2013, published 2016)",
  "key": {"[1]": {"test": "Hepatocyte stability, rat", "type": "in vitro ADME, Sprague-Dawley rat", "experimental": "Human, Beagle dog, Sprague-Dawley rat, and CD-1 mouse cryopreserved hepatocytes were obtained from XenoTech and stored at −150° C. until use. The hepatocytes were thawed and prepared according to the vendor's instructions, pooled into Krebs Henseleit buffer (KHB, pH 7.4), and kept on ice prior to initiating an experiment. […] The reaction mixture was incubated in a shaking water bath at 37° C. Aliquots of the incubation solutions were sampled at 0, 15, 30, 60, and 120 minutes. The reaction was immediately terminated by the addition of three volumes of ice-cold acetonitrile containing 0.1% formic acid and internal standards. After centrifugation at 1640×g for 10 minutes, the supernatants were transferred into HPLC vials, and the test compound was analyzed by LC-MS/MS. Positive controls, testosterone (20 μM) and 7-hydroxycoumarin (100 μM), were performed in parallel to confirm the enzyme activities of the hepatocytes used.\nExperimental half-lives were transformed to the corresponding intrinsic clearance values and subsequently scaled to predicted in vivo clearance values, using the well-stirred model as previously described (Houston, Biochemical Pharmacology 47(9): 1469-1479, 1994; Obach, Drug Metabolism and Disposition 27(11): 1350-1359, 1999), with appropriate species-specific scaling factors (Barter et al., Current Drug Metabolism 8(1): 33-45, 2007)."}, "[2]": {"test": "Plasma protein binding by equilibrium dialysis, rat", "type": "in vitro ADME", "details": "male, Sprague-Dawley, pH 7.4, read-out: Plasma free fraction", "experimental": "(§1) Plasma protein binding was assessed by equilibrium dialysis, utilizing the HT-dialysis cell format with a cellulose semi permeable membrane (molecular weight cut off of 5000 Da). Plasma was warmed to 37° C. and adjusted to pH 7.4 before use. Male Sprague-Dawley rat, male Beagle dog, male CD-1 mouse and mixed sex human plasma was used for the studies. A 5 μM test compound solution was prepared in isotonic phosphate buffer and rat, dog, mouse and human plasma (final DMSO concentration of 0.5%). The plasma-containing solution was introduced to one side of the membrane, and the plasma-free on the other. Incubations were performed for 2-16 hours in duplicate in order to allow the compound to reach equilibrium. Haloperidol was included as the control compound for each species. At the end of the equilibration time the cells were emptied. Following protein precipitation, the samples were centrifuged and analyzed by LC-MS/MS. The samples from the protein containing compartment were quantified using calibration standards prepared in plasma and the protein free compartments were quantified using calibration standards prepared in dialysis buffer."}, "[3]": {"test": "Plasma protein binding by equilibrium dialysis, human", "type": "in vitro ADME", "details": "both sexes, pH 7.4, read-out: Plasma free fraction", "experimental": "as §1"}, "[4]": {"test": "Plasma stability, rat", "type": "in vitro ADME", "details": "Sprague Dawley, pooled plasma, 37° C., read-out: Half-life in ex vivo blood plasma", "from_the_text": "(§2) Samples were quenched in methanol and analyzed by LC-MS/MS analysis."}, "[5]": {"tested_on": "MLL-rearranged leukemia xenograft", "details": "cited from earlier work"}, "[6]": {"test": "Liver microsomes supplemented with UDPGA and alamethacin (glucuronidation)", "type": "in vitro ADME"}, "[7]": {"test": "Plasma stability, mouse", "type": "in vitro ADME, CD-1 mouse", "details": "CD-1, pooled plasma, 37° C., read-out: Half-life in ex vivo blood plasma", "from_the_text": "as §2"}, "[8]": {"test": "Plasma stability, human", "type": "in vitro ADME", "details": "pooled plasma, 37° C., read-out: Half-life in ex vivo blood plasma", "from_the_text": "as §2"}, "[9]": {"test": "Pharmacokinetic study in rat", "type": "in vivo, Sprague-Dawley rat", "experimental": "In the IV bolus study, 1 mg/kg doses prepared in 0.4% HPBCD in saline were administered via foot dorsal vein injection. At each timepoint, 150 μL of blood was collected via tail vein into EDTA-K2 tubes. The blood samples were maintained in wet ice initially and centrifuged to obtain plasma (2000 g, 4° C., 5 minutes) within 15 minutes post sampling. In the PO study, doses prepared in 10% Ethanol:5% Solutol HS15:85% (5% of dextrose in water) were administered by oral gavage. Samples were collected as described above. In the IV infusion study, doses were prepared in 10% PEG400 in 0.9% saline and administered into the femoral vein, at a dose of 4.7 mg/kg/day for 7 days. 500 μL of blood was collected by jugular venipuncture at timepoints over 7 days and placed on crushed wet ice until centrifugation, which was carried out as soon as practical. The samples were centrifuged for 10 minutes at 4° C. at 2700 rpm. The resultant plasma was separated and frozen immediately over dry ice for LC-MS/MS analysis. […] Typically, samples were injected onto an LC-MS/MS system using a Waters BEH Phenyl column. The aqueous mobile phase was water with 0.1% NH4OH (A), and the organic mobile phase was acetonitrile with 0.1% NH4OH (B). The gradient was as follows: 37% B for the first 0.2 min, increased to 44% B from 0.2 to 0.6 min, maintained at 44% B for 0.5 min, and decreased to 37% B within 0.05 min. The injection volume was 2 uL, and the total run time was 1.5 min with a flow rate of 0.6 mL/min. […] The ionization was conducted in the positive ion mode using the MRM transition [M+H]+m/z 563.5 parent ion to m/z 326.3 daughter ion, incorporating a turbo-ionspray interface. Eight to ten calibration standards were prepared in blank plasma of the relevant species providing a typical standard curve concentration range of 5-500 ng/mL. Pharmacokinetic parameters were calculated by noncompartmental methods using WinNonlin (version 5.3; Pharsight, St. Louis, Mo.). Parameters are presented as mean±S.D."}, "[10]": {"details": "male, Sprague-Dawley, plasma, SD rat, IV bolus, 1 mg/kg"}, "[11]": {"details": "male, Sprague-Dawley, plasma, SD rat, IV infusion, 4.7 mg/kg/day for 7 days"}, "[12]": {"details": "male, Sprague-Dawley, plasma, SD rat, PO, 10 mg/kg"}},
  "note": "Where two headings read alike, the source gives them in different places.",
  "data": [
    {"smiles": "CC(C)N(C[C@H]1O[C@@H](n2cnc3c(N)ncnc32)[C@H](O)[C@@H]1O)[C@H]1C[C@@H](CCc2nc3cc(C(C)(C)C)ccc3[nH]2)C1", "note": "[Compound A, (2R,3R,4S,5R)-2-(6-amino-9H-purin-9-yl)-5-((((1r,3S)-3-(2-(5-(tert-butyl)-1H-benzo[d]imidazol-2-yl)ethyl)cyclobutyl)(isopropyl)amino)methyl)tetrahydrofuran-3,4-diol]", "values": [
      {"measurement": "Scaled Hepatic CL from hepatocytes", "setting": "[1]", "value": 7, "unit": "mL/min/kg"},
      {"measurement": "fraction unbound at 5 μM", "setting": "[2]", "value": 0.272},
      {"measurement": "fraction unbound at 5 μM", "setting": "[3]", "value": 0.125},
      {"measurement": "half-life at 1 μM", "setting": "[4]", "value": "> 2", "unit": "h"},
      {"measurement": "tumor response", "setting": "[5]; continuous intravenous (IV) infusion, rat xenograft", "value": "complete tumor regressions"},
      {"measurement": "weight loss or signs of toxicity", "setting": "[5]; rat, in vivo, iv", "value": "no significant weight loss or signs of toxicity"},
      {"measurement": "turnover (glucuronidation)", "setting": "[6]", "value": "no turnover was observed"},
      {"measurement": "half-life at 1 μM", "setting": "[7]", "value": "> 2", "unit": "h"},
      {"measurement": "half-life at 1 μM", "setting": "[8]", "value": "> 2", "unit": "h"},
      {"measurement": "CL", "setting": "[9]; SD rat, IV bolus, 1 mg/kg", "value": "67.8 ± 5.3", "unit": "mL/min/kg"},
      {"measurement": "t1/2", "setting": "[9]; SD rat, IV bolus, 1 mg/kg", "value": "3.73 ± 1.03", "unit": "h"},
      {"measurement": "time to steady state", "setting": "[9]; SD rat, IV infusion, 4.7 mg/kg/day", "value": "≤ 1", "unit": "h"},
      {"measurement": "F", "setting": "[9]; SD rat, PO, 10 mg/kg", "value": "<1", "unit": "%"},
      {"measurement": "AUC(0-inf)", "setting": "[9]; [10]", "value": "0.44 ± 0.03", "unit": "µM·h"},
      {"measurement": "AUC(0-t)", "setting": "[9]; [10]", "value": "0.43 ± 0.03", "unit": "µM·h"},
      {"measurement": "Cmax", "setting": "[9]; [10]", "value": "2040 ± 230", "unit": "nM"},
      {"measurement": "MRT", "setting": "[9]; [10]", "value": "0.41 ± 0.1", "unit": "h"},
      {"measurement": "Tmax", "setting": "[9]; [10]", "value": 0.05, "unit": "h"},
      {"measurement": "AUC(0-inf)", "setting": "[9]; [11]", "value": 12.5, "unit": "µM·h"},
      {"measurement": "AUC(0-t)", "setting": "[9]; [11]", "value": 12.5, "unit": "µM·h"},
      {"measurement": "Cmax", "setting": "[9]; [11]", "value": 130, "unit": "nM"},
      {"measurement": "Tmax", "setting": "[9]; [11]", "value": 4, "unit": "h"},
      {"measurement": "concentration at 7 days", "setting": "[9]; male, Sprague-Dawley, plasma, SD rat, IV infusion, 4.7 mg/kg/day for 7 days, read-out: average steady state concentration", "value": 78, "unit": "nM"},
      {"measurement": "Cmax", "setting": "[9]; [12]", "value": 0.7, "unit": "nM"},
      {"measurement": "Tmax", "setting": "[9]; [12]", "value": 0.25, "unit": "h"},
      {"measurement": "half-life", "setting": "[9]; male, Sprague-Dawley, rat, plasma, iv, 1 mg/kg, SD rat, IV bolus", "value": 3.7, "unit": "h"},
      {"measurement": "clearance", "setting": "[9]; male, Sprague-Dawley, rat, plasma, iv, 1 mg/kg, SD rat, IV bolus, 1 mg/kg, read-out: CL", "value": 68, "unit": "mL/min/kg"},
      {"measurement": "Vd", "setting": "[9]; male, Sprague-Dawley, rat, plasma, iv, 1 mg/kg, SD rat, IV bolus, 1 mg/kg, read-out: VDss", "value": 1.66, "unit": "L/kg"},
      {"measurement": "Vd", "setting": "[9]; male, Sprague-Dawley, rat, plasma, iv, 1 mg/kg, rat, read-out: Unbound VDss", "value": 6.1, "unit": "L/kg"},
      {"measurement": "clearance", "setting": "[9]; male, Sprague-Dawley, rat, plasma, iv, 4.7 mg/kg/day, SD rat, IV infusion, 4.7 mg/kg/day, Css 78 nM, read-out: CL estimate from IV infusion (dose rate divided by Css)", "value": 74, "unit": "mL/min/kg"},
      {"measurement": "oral bioavailability (in words)", "setting": "[9]; rat, PO", "value": "low and negligible"}
    ]}
  ]
}
